This note sets out measurements from patent US9023789B2, “Amylin analogs and pharmaceutical compositions thereof” (Novo Nordisk A/S, priority 2012, dated 2015).

Usually IC50 stands for the concentration needed to halve the response being measured.

Numbered stars: 1 amine (or outer) side, 2 acyl side, 3 side chain; on linkers, the order of the positions; unused ones are H or OH. Bridge positions count the residues as written; N and C are the ends. Side chains are listed from the residue outwards. Peptide text beside a SMILES is read from it. * marks the point of attachment. C20 diacid = O=C(O)CCCCCCCCCCCCCCCCCCC(=O)*; γGlu = O=C(O)[C@H](CCC(=O)[*:2])N[*:1]

The target in this assay is T1, rat amylin receptor (rat calcitonin receptor + rat RAMP 3) (Rattus norvegicus, UniProt P32214+Q9JJ73).
T1 construct: expressed in transfected cells; host or cells: BHK tk'ts 13 (transient, FuGENE 6), membranes
T1 sequence (P32214 25-479 isoform P32214-2 limits assumed): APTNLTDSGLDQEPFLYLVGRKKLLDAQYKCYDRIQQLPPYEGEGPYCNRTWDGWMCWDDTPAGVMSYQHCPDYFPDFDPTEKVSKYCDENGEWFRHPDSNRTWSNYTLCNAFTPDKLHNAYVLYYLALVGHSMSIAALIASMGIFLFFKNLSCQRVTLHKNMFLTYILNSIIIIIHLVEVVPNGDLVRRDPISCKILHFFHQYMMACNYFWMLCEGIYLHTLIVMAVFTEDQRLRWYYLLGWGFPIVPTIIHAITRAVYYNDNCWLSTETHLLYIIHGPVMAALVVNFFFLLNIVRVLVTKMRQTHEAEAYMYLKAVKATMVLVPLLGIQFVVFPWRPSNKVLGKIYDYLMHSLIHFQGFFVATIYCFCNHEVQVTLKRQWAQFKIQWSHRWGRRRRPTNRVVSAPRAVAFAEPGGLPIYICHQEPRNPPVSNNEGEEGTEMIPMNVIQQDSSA
T1 sequence (Q9JJ73 23-147 partner): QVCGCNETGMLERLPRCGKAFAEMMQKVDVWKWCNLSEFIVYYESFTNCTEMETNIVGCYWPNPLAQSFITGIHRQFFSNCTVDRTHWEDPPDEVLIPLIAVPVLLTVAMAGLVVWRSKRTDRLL
The experiment in a line: ASSAY (VI) binding to the rat amylin receptor. The following applies: for IC50: binding to rat amylin receptor, read-out: rAmylin-R bind IC50. Summed up: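 The cell-membrane assay assessed binding at the rat amylin receptor. BHK tk′ts 13 cells were transfected transiently with rat calcitonin receptor, with FuGENE® 6 (Roche) as the transfection reagent, used per the manufacturer's recommendations. Approximately 48 hours after transfection the cells were harvested, and membranes were prepared for measuring binding.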

Setting [1] is: Table 7, rat binding selectivity, rCTR IC50 / rAmylin-R IC50.
Where [2] appears, read: Table 7a (preferred compounds), rat binding selectivity, rCTR IC50 / rAmylin-R IC50.
Where [3] appears, read: ratio of rCTR bind IC50 to rAmylin-R bind IC50.

In the case of `CC[C@H](C)[C@H](NC(=O)[C@H](C)NC(=O)CNC(=O)[C@H](Cc1ccccc1)NC(=O)[C@H](CC(N)=O)NC(=O)[C@@H]1CCCN1C(=O)[C@H](CO)NC(=O)[C@H](CO)NC(=O)[C@H](Cc1c[nH]cn1)NC(=O)[C@H](CCCNC(=N)N)NC(=O)[C@H](CC(C)C)NC(=O)[C@H](Cc1ccccc1)NC(=O)[C@H](CCC(=O)O)NC(=O)[C@H](C)NC(=O)[C@H](CC(C)C)NC(=O)[C@H](CCCNC(=N)N)NC(=O)[C@H](CCC(N)=O)NC(=O)[C@@H](NC(=O)[C@H](C)NC(=O)[C@@H]1CSSC[C@H](NC(=O)[C@@H](N)CCCCNC(=O)CC[C@H](NC(=O)CC[C@H](NC(=O)CCCCCCCCCCCCCCCCCCC(=O)O)C(=O)O)C(=O)O)C(=O)N[C@@H](CC(N)=O)C(=O)N[C@@H]([C@@H](C)O)C(=O)N[C@@H](C)C(=O)N[C@@H]([C@@H](C)O)C(=O)N1)[C@@H](C)O)C(=O)N1CCC[C@H]1C(=O)N[C@@H](CO)C(=O)N[C@@H](CO)C(=O)N[C@H](C(=O)N[C@@H](CC(N)=O)C(=O)N[C@H](C(=O)NCC(=O)N[C@@H](CCCNC(=N)N)C(=O)N[C@@H](CC(N)=O)C(=O)N[C@H](C(=O)N[C@@H](Cc1ccc(O)cc1)C(N)=O)[C@@H](C)O)C(C)C)[C@@H](C)O` [Example 88] (H-K([γGlu-γGlu-C20 diacid])CNTATCATQRLAEFLRHSSPNFGAIPSSTNVGRNTY-NH2; disulfide 2-7), under “Table 7”, the IC50 came to 2.31 nM. Moreover, the “Ratio rCT/rAmylin binding” value is listed as 84.9 under setting [1], 84.9 under setting [2] and 84.9 under setting [3].
With `CC[C@H](C)[C@H](NC(=O)[C@H](C)NC(=O)CNC(=O)[C@H](Cc1ccccc1)NC(=O)[C@H](CC(N)=O)NC(=O)[C@@H]1CCCN1C(=O)[C@H](CO)NC(=O)[C@H](CO)NC(=O)[C@H](Cc1c[nH]cn1)NC(=O)[C@H](CCCNC(=N)N)NC(=O)[C@H](CC(C)C)NC(=O)[C@H](Cc1ccccc1)NC(=O)[C@H](CCC(=O)O)NC(=O)[C@H](C)NC(=O)[C@H](CC(C)C)NC(=O)[C@H](CCCNC(=N)N)NC(=O)[C@H](CCC(N)=O)NC(=O)[C@@H](NC(=O)[C@H](C)NC(=O)[C@@H]1CSSC[C@H](NC(=O)[C@H](CCCCN)NC(=O)COCCOCCNC(=O)COCCOCCNC(=O)CC[C@H](NC(=O)CCCCCCCCCCCCCCCCCCC(=O)O)C(=O)O)C(=O)N[C@@H](CC(N)=O)C(=O)N[C@@H]([C@@H](C)O)C(=O)N[C@@H](C)C(=O)N[C@@H]([C@@H](C)O)C(=O)N1)[C@@H](C)O)C(=O)N1CCC[C@H]1C(=O)N[C@@H](CO)C(=O)N[C@@H](CO)C(=O)N[C@H](C(=O)N[C@@H](CC(N)=O)C(=O)N[C@H](C(=O)NCC(=O)N[C@@H](CO)C(=O)N[C@@H](CC(N)=O)C(=O)N[C@H](C(=O)N[C@@H](Cc1ccc(O)cc1)C(N)=O)[C@@H](C)O)C(C)C)[C@@H](C)O` [Example 19], for the setting “Table 7”, the IC50 turned out to be 1.02 nM. In addition, the “Ratio rCT/rAmylin binding” value under setting [1] worked out at 93.6, the “Ratio rCT/rAmylin binding” value under setting [2] is 93.6 and the “Ratio rCT/rAmylin binding” value under setting [3] stood at 93.6.
Consider `CC[C@H](C)[C@H](NC(=O)[C@H](C)NC(=O)CNC(=O)[C@H](Cc1ccccc1)NC(=O)[C@H](CC(N)=O)NC(=O)[C@@H]1CCCN1C(=O)[C@H](CO)NC(=O)[C@H](CO)NC(=O)[C@H](Cc1c[nH]cn1)NC(=O)[C@H](CCCNC(=N)N)NC(=O)[C@H](CC(C)C)NC(=O)[C@H](Cc1ccccc1)NC(=O)[C@H](CCC(=O)O)NC(=O)[C@H](C)NC(=O)[C@H](CC(C)C)NC(=O)[C@H](CCCNC(=N)N)NC(=O)[C@H](CCC(N)=O)NC(=O)[C@@H](NC(=O)[C@H](C)NC(=O)[C@@H]1CSSC[C@H](NC(=O)[C@@H](N)CCCCNC(=O)CC[C@H](NC(=O)CCCCCCCCCCCCCCCCCCC(=O)O)C(=O)O)C(=O)N[C@@H](CC(N)=O)C(=O)N[C@@H]([C@@H](C)O)C(=O)N[C@@H](C)C(=O)N[C@@H]([C@@H](C)O)C(=O)N1)[C@@H](C)O)C(=O)N1CCC[C@H]1C(=O)N[C@@H](CO)C(=O)N[C@@H](CO)C(=O)N[C@H](C(=O)N[C@@H](CC(N)=O)C(=O)N[C@H](C(=O)NCC(=O)N1CCC[C@H]1C(=O)N[C@@H](CC(N)=O)C(=O)N[C@H](C(=O)N1CCC[C@H]1C(N)=O)[C@@H](C)O)C(C)C)[C@@H](C)O` [Example 114] (H-K([γGlu-C20 diacid])CNTATCATQRLAEFLRHSSPNFGAIPSSTNVGPNTP-NH2; disulfide 2-7 (inferred); N-terminus assumed), for which the “Ratio rCT/rAmylin binding” value under setting [1] is given as 1.1.
For the compound `CC[C@H](C)[C@H](NC(=O)[C@H](C)NC(=O)CNC(=O)[C@H](Cc1ccccc1)NC(=O)[C@H](CC(N)=O)NC(=O)[C@@H]1CCCN1C(=O)[C@H](CO)NC(=O)[C@H](CO)NC(=O)[C@H](Cc1c[nH]cn1)NC(=O)[C@H](CCCNC(=N)N)NC(=O)[C@H](CC(C)C)NC(=O)[C@H](Cc1ccccc1)NC(=O)[C@H](CC(=O)O)NC(=O)[C@H](C)NC(=O)[C@H](CC(C)C)NC(=O)[C@H](CCCNC(=N)N)NC(=O)[C@H](CCC(N)=O)NC(=O)[C@@H](NC(=O)[C@H](C)NC(=O)[C@@H]1CSSC[C@H](NC(=O)[C@@H](N)CCCCNC(=O)CC[C@H](NC(=O)CC[C@H](NC(=O)CCCCCCCCCCCCCCCCCCC(=O)O)C(=O)O)C(=O)O)C(=O)N[C@@H](CC(N)=O)C(=O)N[C@@H]([C@@H](C)O)C(=O)N[C@@H](C)C(=O)N[C@@H]([C@@H](C)O)C(=O)N1)[C@@H](C)O)C(=O)N1CCC[C@H]1C(=O)N[C@@H](CO)C(=O)N[C@@H](CO)C(=O)N[C@H](C(=O)N[C@@H](CC(N)=O)C(=O)N[C@H](C(=O)NCC(=O)N1CCC[C@H]1C(=O)N[C@@H](CCCNC(=N)N)C(=O)N[C@H](C(=O)N[C@@H](Cc1ccc(O)cc1)C(N)=O)[C@@H](C)O)C(C)C)[C@@H](C)O` [Example 130] (H-K([γGlu-γGlu-C20 diacid])CNTATCATQRLADFLRHSSPNFGAIPSSTNVGPRTY-NH2; disulfide 2-7 (inferred); N-terminus assumed), the IC50 (Table 7) turned out to be 0.93 nM. For the same compound, the “Ratio rCT/rAmylin binding” value runs as follows: under setting [1], 239.5; under setting [2], 239.5; under setting [3], 239.5.
With `CC[C@H](C)[C@H](NC(=O)[C@H](C)NC(=O)CNC(=O)[C@H](Cc1ccccc1)NC(=O)[C@H](CC(N)=O)NC(=O)[C@@H]1CCCN1C(=O)[C@H](CO)NC(=O)[C@H](CO)NC(=O)[C@H](Cc1c[nH]cn1)NC(=O)[C@H](CCCNC(=N)N)NC(=O)[C@H](CC(C)C)NC(=O)[C@H](Cc1ccccc1)NC(=O)[C@H](CCC(=O)O)NC(=O)[C@H](C)NC(=O)[C@H](CC(C)C)NC(=O)[C@H](CCCNC(=N)N)NC(=O)[C@H](CCC(N)=O)NC(=O)[C@@H](NC(=O)[C@H](C)NC(=O)[C@@H]1CSSC[C@H](NC(=O)[C@@H](N)CCCCNC(=O)CC[C@H](NC(=O)CCCCCCCCCCCCCCCCCCC(=O)O)C(=O)O)C(=O)N[C@@H](CC(N)=O)C(=O)N[C@@H]([C@@H](C)O)C(=O)N[C@@H](C)C(=O)N[C@@H]([C@@H](C)O)C(=O)N1)[C@@H](C)O)C(=O)N1CCC[C@H]1C(=O)N[C@@H](CO)C(=O)N[C@@H](CO)C(=O)N[C@H](C(=O)N[C@@H](CC(N)=O)C(=O)N[C@H](C(=O)NCC(=O)N[C@@H](CO)C(=O)N[C@@H](Cc1c[nH]cn1)C(=O)N[C@H](C(=O)N[C@@H](Cc1ccc(O)cc1)C(N)=O)[C@@H](C)O)C(C)C)[C@@H](C)O` [Example 128] (H-K([γGlu-C20 diacid])CNTATCATQRLAEFLRHSSPNFGAIPSSTNVGSHTY-NH2; disulfide 2-7 (inferred); N-terminus assumed), where the note is “Table 7”, the IC50 amounted to 1.16 nM. Moreover, the “Ratio rCT/rAmylin binding” value reads like this: under setting [1], 22.7; under setting [2], 22.7; under setting [3], 22.7.
